Reference: patent publication US20200345637A1, “SUSPENSION COMPOSITIONS OF MULTI-TARGET INHIBITORS” (AIVIVA BIOPHARMA, INC., priority 2018, published 2020)
In brackets after ≈: the same amount, converted by molar mass. Several values for one entry are separate records, joined by “and”; a condition that tells them apart may be missing. Equal values may be shown once. Read-outs that look alike come from different tables or passages of the source.

Columns and labels:
[1] = rat, in vivo
Description: (§2) This study investigated the pharmacokinetics and distribution of axitinib, sorafenib, pirfenidone, and riociguat after intraprostate injections in Wistar rats (n=6-7 per treatment group). Axitinib, sorafenib and riociguat, as 1% w/w suspension, and pirfenidone as 2.5% suspension were administered as single intraprostate injection (a total of 0.2 mL) on Days 15 and 29 in this 42-day study.

[2] = Terminal sterilization and stability assay of formulated suspension; type: physicochemical; settings: for Assay (% of labeled claim) of Formulated Suspension, 4 months (40° C./75% RH) / Assay (% of labeled claim) of Formulated Suspension, 6 weeks (40° C./75% RH) / Assay (% of labeled claim) of Formulated Suspension, Initial: Gamma irradiation
Excerpt: (§1) Examples 1-3 depict the results of physical testing of some subject formulations.

[3] = Aqueous solubility of multi-target inhibitors; type: physicochemical; settings: for solubility: aqueous (not further specified)
Excerpt: Non-limiting examples of the useful multi-target inhibitors and their physicochemical forms are given in Table 1 with aqueous solubility information.

[4] = Suspension physical testing: particle size, pH, osmolality, syringeability; type: physicochemical; set-up: API Raw Material PSD D50 / Formulated Suspension Particle size distribution D50 / API Raw Material PSD D90 / Formulated Suspension Particle size distribution D90: unit not given here; settings: for Formulated Suspension Syringeability: needle gauge passed
Excerpt: as §1

[5] = Pharmacokinetics and distribution after intraprostate injections in rats (Example 8); settings: for Plasma concentrations Mean: intraprostate injection
Description: as §2

[6] = Local tolerance and ocular distribution, topical instillation three times daily for 5 days
Description: (§3) This study evaluated the local tolerance of vehicle, axitinib, pirfenidone, sorafenib and lenvatinib and ocular distribution of axitinib, sorafenib and lenvatinib (0.3% w/w) when administered by topical ocular instillation in the eyes of New Zealand white rabbits (n=6 per group). […] On Dosing Day 5, the animals were sacrificed and eyes were enucleated. Ocular and plasma concentrations of select compounds were measured by LC-MS/MS.

[7] = systemic; literature or US label; cited from earlier work
[8] = rabbit, in vivo
Description: as §3

[9] = tested on: linear incision wound sites; test: Intradermal injection along linear incision wounds, histological evaluation; type: in vivo, minipigs; settings: for granulation tissue formation compared to vehicle treated control wounds / presence of myofibroblasts compared to vehicle treated control wounds: 2% suspension (sorafenib 1% suspension); for SMA staining / dermis fibrin / dermis fibroplasia / dermis provisional matrix / epidermis hyperplasia / inflammation / subcutis fibroplasia / subcutis mixed cell infiltrate: microscopic grade over 29 days
Description: The purpose of this study was to evaluate the suspension formulation when administered via intradermal injection with axitinib, nintedanib, sorafenib, and lenvatinib to the dorsal skin along linear incisions of minipigs.
Four male minipigs were dosed. Animals were dosed once via intradermal injection along the edges of each of 10 wound sites for each animal (5 wounds on each side of the dorsum [perpendicular to the spine], approximately 3 cm in length and 3 cm distance from the spine). Axitinib, nintedanib, lenvatinib, and the vehicle control article were administered via eight 0.1 mL intradermal injections around each respective wound site (one injection/cm on both sides of the wound), for a total volume of 0.8 mL/wound site. Sorafenib was administered via the same method at a volume of 0.2 mL/injection, for a total volume of 1.6 mL/wound site. The vehicle control article was Vehicle for Test Articles axitinib, nintedanib, lenvatinib, and sorafenib.
A generalized measure of inflammation, including inflammatory cell infiltrate, fibrin deposition, fibroplasia, epithelial hyperplasia and areas of tissue necrosis were assessed microscopically. […] For test agent treated wounds, all were graded as slight on Day 4, and there was no consistent difference over time as compared to the control group.

[10] = Skin pharmacokinetics after single intradermal injection in minipigs; settings: over 28 days
Description: Pharmacokinetics of axitinib and nintedanib was investigated after a single intradermal injection of 0.1% and 1% suspensions to the dorsum of Yucatan minipigs. The dosing volume was 0.1 mL for each injection. Concentrations of drugs in the epidermis and dermis over 28 days at the injection site and at 2 cm away from the injection site were measured using LCMS/MS method.

[11] = two weeks after the second biweekly intraprostate injection

Row | Structure (SMILES) | drug concentration in prostate [1] | drug release from prostate into systemic circulation [1] | Assay (% of labeled claim) of Formulated Suspension, 4 months (40° C./75% RH) [2] | Assay (% of labeled claim) of Formulated Suspension, 6 weeks (40° C./75% RH) [2] | Assay (% of labeled claim) of Formulated Suspension, Initial ([2]; initial) | solubility [3] [µg/mL] | API Raw Material PSD D50 [4] | API Raw Material PSD D90 [4] | Formulated Suspension Osmolality [4] [mOsm/kg] | Formulated Suspension Particle size distribution D50 [4] | Formulated Suspension Particle size distribution D90 [4] | Formulated Suspension pH [4] | Formulated Suspension Syringeability [4] | Plasma concentrations Mean ([5]; Study Day 15, 24 h) [ng/mL] | Plasma concentrations Mean ([5]; Study Day 29, 24 h) [ng/mL] | Plasma concentrations Mean ([5]; Study Day 42, 0 h) | Prostate concentrations Mean [5, 11] [µg/g] | terminal plasma half-life in man [7] [h] | granulation tissue formation compared to vehicle treated control wounds [9] | presence of myofibroblasts compared to vehicle treated control wounds [9] | also measured
1 | COC(=O)N(C)c1c(N)nc(-c2nn(Cc3ccccc3F)c3ncccc23)nc1N [Riociguat] | remained high | prolonged drug release | 99.9 % of labeled claim and 99.7 % of labeled claim | 98.7 % of labeled claim and 98.0 % of labeled claim | 101.9 % of labeled claim and 100.6 % of labeled claim | 8 (≈ 18.9 µM) | D50: 16 | D90: 29 | 201 | D50: 9 | D90: 17 | 7.6 | Pass 27G |  |  |  |  |  |  |  | Prostate concentrations Mean ([1]; male, Wistar, 2 weeks after the second injection): 492 µg/g
2 | CCN(CC)CCNC(=O)c1c(C)[nH]c(/C=C2\C(=O)Nc3ccc(F)cc32)c1C [Sunitinib] |  |  | 100.0 % of labeled claim and 95.6 % of labeled claim | 98.9 % of labeled claim and 96.5 % of labeled claim | 96.7 % of labeled claim and 95.1 % of labeled claim | 7 (≈ 17.6 µM) | D50: 25 | D90: 52 | 201 | D50: 12 | D90: 26 | 7.6 | Pass 25G |  |  |  |  |  |  |  | 
3 | Cc1ccc(=O)n(-c2ccccc2)c1 [Pirfenidone] |  |  | 91.5 % of labeled claim and 94.9 % of labeled claim | 89.9 % of labeled claim and 95.7 % of labeled claim | 90.9 % of labeled claim and 97.2 % of labeled claim | 3000 (≈ 16200 µM) | D50: 57 | D90: 74 | 312 | D50: 44 | D90: 72 | 7.6 | Pass 23G | 0.381 | 0.454 | BLQ | 0.014 |  |  |  | 
4 | CNC(=O)c1ccccc1Sc1ccc2c(/C=C/c3ccccn3)n[nH]c2c1 [Axitinib] | remained high | prolonged drug release | 95.2 % of labeled claim and 100.9 % of labeled claim | 97.8 % of labeled claim and 98.5 % of labeled claim | 102.0 % of labeled claim and 100.7 % of labeled claim | 2 (≈ 5.17 µM) | D50: 5.5 | D90: 9.9 | 206 | D50: 5.8 | D90: 15.6 | 7.6 | Pass 25G | 1.72 | 1.49 | 0.33 ng/mL | 718 | 2 to 5 | delay in granulation tissue formation | prolonged presence of myofibroblasts | concentration at 5 day of dosing ([6]; New Zealand White, rabbit, plasma, topical, 35 μl eyedrop of 0.3% w/w to the right eye, three times daily): 0.29 ng/mL; concentrations in the choroid and retina [8]: significant concentrations; drug concentrations in anterior tissues of conjunctiva, sclera and cornea [8]: high drug concentrations; Assay (% of labeled claim) of Formulated Suspension, 4 months (40° C./75% RH) (bottom) ([2]; Autoclave, bottom, tested at 3 months instead of 4 months, 40° C./75% RH): 103.2 % of labeled claim; Assay (% of labeled claim) of Formulated Suspension, Initial (bottom) ([2]; Autoclave, initial, bottom): 100.1 % of labeled claim; Assay (% of labeled claim) of Formulated Suspension, Initial (top) ([2]; Autoclave, initial, top): 98.7 % of labeled claim; Assay (% of labeled claim) of Formulated Suspension, 4 months (40° C./75% RH) (top) ([2]; Autoclave, top, tested at 3 months instead of 4 months, 40° C./75% RH): 101.2 % of labeled claim; SMA staining [9]: minimal to moderate; dermis fibrin [9]: slight to moderate; dermis fibroplasia [9]: none to slight; dermis provisional matrix [9]: marked to moderate; epidermis hyperplasia [9]: minimal to slight; inflammation [9]: slight to moderate; subcutis fibroplasia [9]: none to moderate; subcutis mixed cell infiltrate [9]: moderate to minimal; mean concentration in the dermis, 2 cm away from the injection site ([10]; 0.1% intradermal injection): 1.2-8 ng/gm; mean concentration in the epidermis, 2 cm away from the injection site ([10]; 0.1% intradermal injection): 4.5-55.2 ng/gm; mean concentration in the dermis, 2 cm away from the injection site ([10]; 1% intradermal injection): 2.9-150 ng/gm; mean concentration in the epidermis, 2 cm away from the injection site ([10]; 1% intradermal injection): 42.3-723 ng/gm
5 | CNC(=O)c1cc(Oc2ccc(NC(=O)Nc3ccc(Cl)c(C(F)(F)F)c3)cc2)ccn1.Cc1ccc(S(=O)(=O)O)cc1 [Sorafenib Hemi Tosylate] |  |  | 99.9 % of labeled claim and 99.6 % of labeled claim | 100.7 % of labeled claim and 100.4 % of labeled claim | 98.9 % of labeled claim and 101.6 % of labeled claim |  | D50: 18 | D90: 39 | 216 | D50: 11 | D90: 20 | 7.3 | Pass 27G |  |  |  | 892 |  | delay in granulation tissue formation | prolonged presence of myofibroblasts | concentrations in the choroid and retina ([6]; 0.3% w/w topical instillation): significant concentrations; drug concentrations in anterior tissues of conjunctiva, sclera and cornea ([6]; 0.3% w/w topical instillation): high drug concentrations; plasma concentrations, mean (±SD) ([6]; Day 5 of dosing, 0.3% w/w 35 μl eyedrop three times daily): 5.09 (±1.27) ng/mL; drug release from prostate into systemic circulation ([5]; after single intraprostate injections): prolonged drug release; drug concentration in prostate [5, 11]: remained high; Aqueous Solubility [3]: 6 µg/mL; SMA staining [9]: slight to minimal; dermis fibrin [9]: minimal to none; dermis fibroplasia [9]: minimal to slight; dermis provisional matrix [9]: slight to none; epidermis hyperplasia [9]: none; inflammation [9]: moderate to minimal; subcutis fibroplasia [9]: minimal to moderate; subcutis mixed cell infiltrate [9]: slight to marked
6 | CNC(=O)c1cc(Oc2ccc(NC(=O)Nc3ccc(Cl)c(C(F)(F)F)c3)c(F)c2)ccn1 [regorafenib, Regorafenib] |  |  |  |  |  |  |  |  |  |  |  |  |  |  |  |  |  | 28 |  |  | 
